Results as given in US6468983B2, “RNase L activators and antisense oligonucleotides effective to treat telomerase-expressing malignancies” (The Cleveland Clinic Foundation, priority 1997, dated 2002).

Legend:
U373-MG tumors [1] = test: Combination with cisplatin on subcutaneous tumors in nude mice; type: in vivo; conditions: cisplatin 1 or 5 mg/kg i.p. Days 1, 3, 5 combined with spA4-anti-hTR 5 nmol intratumoral daily 7 days, versus cisplatin alone
Protocol: (§1) FIG. 17. Effect of combining 2-5A-anti-hTR with cisplatin on malignant glioma U373-MG cells in vitro and in vivo. FIG. 17A Tumor cells were treated with 2-5A-anti-hTR (0.5 μM, every 24 hr) mixed with Lipofectamine (1.0 μl/25 μl DMEM) or cisplatin for three days, and their viability was determined by MTT assay. Values represent the means±S.D. FIG. 17B Tumors from U373-MG cells (1.0×10^6 cells in 0.05 ml serum free DMEM and 0.05 ml matrigel) were established subcutaneously in nude mice. After four or five weeks when the tumors were approximately 60-100 mm^3, spA4-anti-hTR (5 nmol/20 μl sterile distilled water) were administrated directly into the tumors daily for 7 days. Cisplatin (1.0 or 5.0 mg/kg/mice) was administered intraperitoneally on Days 1, 3 and 5. Five Mice were used in each treatment group. Tumor volume was then determined using calipers, and the mean sizes ±S.D. were calculated.
To determine if the anti-malignant glioma cell activity of chemotherapeutic agent, cisplatin, could be enhance with SpA4-anti-hTR, a combination therapy protocol was devised (FIG. 17). […] Furthermore, we determined the effect of combining 2-5A-anti-hTR with cisplatin on U373-MG cells in vitro and in vivo. […]

U373-MG cells = test: Combination with cisplatin in vitro, MTT assay; type: cell-based, human
Protocol: as §1
To determine if the anti-malignant glioma cell activity of chemotherapeutic agent, cisplatin, could be enhance with SpA4-anti-hTR, a combination therapy protocol was devised (FIG. 17). The point at which 50% cell death was achieved was using 1 microgram per ml of cisplatin plus 0.5 micromolar of SpA4-anti-hTR; whereas in the absence of SpA4-anti-hTR, >10 micrograms per ml of cisplatin were required to achieve 50% cell death (FIG. 17). […] Furthermore, we determined the effect of combining 2-5A-anti-hTR with cisplatin on U373-MG cells in vitro and in vivo. […] The IC50 of cisplatin was reduced from 10.0 to 1.0 μg/ml by combination of spA4-anti-hTR.

[2] = system: renal cell carcinoma cell line, RCC; test: Viable cell count, daily oligonucleotide plus lipofectamine; type: cell-based, human; conditions: 0.5 micromolar daily plus lipofectamine, 3 days
Protocol: (§2) Cells (10,000/well) were seeded on 96 well tissue culture dishes, and treated every 24 hours. A 10× concentrated mixture of oligonucleotides plus lipofectamine in water was prepared containing 5 micromolar oligonucleotide and 80 microgram per ml lipofectamine™ (Gibco/BRL) and incubated for 10 min at room temperature. Media was removed from the cells, 10 microliters of the oligonucleotide/lipofectamine mixture was added directly to the cultured cells followed by 90 microliters of media plus serum. The media was changed with oligonucleotide/lipofectamine treatments every 24 h. Cells were passaged when the control cells reached confluency, and viable cells were counted after staining with Trypan Blue (GibcoBRL). The numbers of cells treated only with lipofectamine were used as the control to calculate percentages of cell survival or viability.
Similarly, the viability of the breast cancer cell line, MDA468, was reduced by 64% by SpA4-anti-hTR, while the control oligonucleotides reduced cell viability by <20% (FIG. 6). Viability of the human melanoma cell line, A375, was reduced by 43% in three days by SpA4-anti-hTR, while the control oligonucleotides had no effect (FIG. 7). […] Viability of a third human melanoma cell line, SK-MEL-5, was reduced by 43% by SpA4-anti-hTR, with minimal effects by the control oligonucleotides (FIG. 7). Two prostate tumor cells lines, PC3 and DU145, were suppressed by SpA4-anti-hTR treatments by 45% and 60%, respectively (FIGS. 6 and 10). […] The viability of the malignant glioma cell line, U373, was reduced by about 60% in 3 days, with intermediate effects by the control oligonucleotides (FIG. 6). Therefore, the proliferation and survival of every tumor cell type tested was inhibited by SpA4-anti-hTR. […] In contrast, there was no apoptosis detected in the control cells treated with lipofectamine without oligonucleotide (FIG. 12 upper panel).

U373 cells = test: Viable cell count (trypan blue), daily oligonucleotide plus lipofectamine; type: cell-based, human; conditions: U373, 0.5 micromolar daily plus lipofectamine; for cell viability / viable cell numbers reduced by: 7 days
Protocol: as §2

U251-MG cells = test: Cell viability assay, trypan blue dye exclusion, oligonucleotide in water every 12 hr; type: cell-based, human; conditions: 5 micromolar every 12 hr; for cell death / effect on viability (in words): 14 days
Protocol: The cytotoxic effect of 2-5A activator antisense complexes on tumor cells was determined using the trypan blue dye exclusion assay. Tumor cells were seeded at 10^4 cells/well (0.1 ml) in 96-well flat-bottomed plates and incubated overnight at 37° C. Then, oligonucleotides (5 micromolar) in water were added into cells every 12 hr. On successive days the cells were harvested and 25% of the total was examined microscopically to determine the percentage of viable cells, another 25% was replated to continue treatment and the remaining 50% were used for the TRAP assay.
Knowing that hTR could be inactivated by the 2-5A antisense treatment, U251-MG cells were treated every 12 hours over a 14 day period with the same three oligonucleotides. 79% of the cells treated with spA4-anti-hTR were killed over the 14 day period with a significant (50%) reduction in cell viability after only 5 days. […] These experiments have since been repeated on a number of occasions with U251-MG cells to test new batches of oligonucleotides, always with the same results. […] Thus, after 14 days from the initial treatment with spA4-anti-hTR, the viability of U251-MG cells, as shown by Trypan-blue exclusion assays, was suppressed in all cases.

U251-MG tumors [3] = test: Subcutaneous xenografts in nude mice, intratumoral oligonucleotide; type: in vivo, Balb/c nude mice
Protocol: (§3) U251-MG and U373 MG tumor cells (1.0×10^6 cells in 0.1 ml serum free DMEM and 0.1 ml Matrigel) were injected subcutaneously into the right flank of 8-12 week-old female Balb/c nude mice (5 mice for each treatment group). Tumor growth was monitored using calipers every 2- or 3-days. Tumor volume (V) was calculated as (L×W^2)/2, where L=length (mm) and W=width (mm). Oligonucleotide treatment was initiated when the tumors reached an average tumor volume of 60-100 mm^3 (about four to five weeks after injection). Oligonucleotides (5 nmol/20 microliter sterile distilled water) were administered by injecting them directly into the tumor every 24 hr for 7-14 days. Some experiments included lipofectamine at 1 microliter per 20 microliters final volume of oligonucleotide solution. Mice were sacrificed by cervical dislocation the day after the final injection and the tumors were removed, frozen rapidly and 12 μm sections were prepared for histological studies. During all of these experiments, which were approved by the CCF Research Programs Committee, the animals were housed and handled in accordance with the National Institutes of Health guidelines.

telomerase RNA (hTR) = test: RT-PCR for telomerase RNA in oligonucleotide-treated U251-MG cells; type: cell-based, human; conditions: oligonucleotide 5 μM, 5 hours treatment
Protocol: Chimeric oligonucleotides were synthesised on solid supports and purified as described previously (Torrence et al 1993; Lesiak et al 1993; Xiao et al 1994, 1996; Cirino et al 1997). Tumor cells were seeded at 3×10^5 cells/well (3 ml) in 6-well plates and incubated overnight at 37° C. Cells were then treated with oligonucleotides (5 μM). Five hours later total RNA was isolated by using Trizol solution (GIBCO BRL, Grand Island, N.Y.). Expression of telomerase RNA was determined with RT-PCR. The RNA was reverse transcribed into complementary DNA (cDNA) with random oligos used as a primer, and then the cDNA was diluted three times with buffer 10×PCR buffer (Perkin-Elmer, Norwalk, Conn.) at a final concentration of 1:4. The DNA at each dilution was amplified using primers to antisense and sense sequences on opposite sides of the human telomerase RNA sequence, 5′-[…]-3′ (SEQ ID NO:4) and 5′[…]-3′ […], respectively, or to the GAPDH coding sequence, 5′-[…]-3′ […] and 5′[…]-3′ (SEQ ID NO:7), respectively, producing DNA fragments of 400 bp for telomerase cDNA and 508 bp for the GAPDH cDNA, respectively. The PCR went for 30 cycles (94° C., 1 min; 55° C., 1 min; 72° C., 2 min) for telomerase and 30 cycles (94° C., 1 min; 60° C., 1 min; 74° C., 3 min) for GAPDH. The PCR products were analyzed by 1.2% agarose gel electrophoresis and ethidium bromide staining.
Aliquots of U251-MG cells were treated with the “active” oligonucleotide and the two controls for 5 hours. RNA was then prepared from these cells and subjected to RT-PCR to detect telomerase RNA. […] In contrast, telomerase RNA (hTR) was present in cells treated with the control oligonucleotides; spA2-anti-hTR and spA4-anti-(M6)hTR. Thus, hTR could be selectively destroyed in U251-MG cells. Since the RT-PCR assay is not quantitative, it was not possible to assess whether treatment with the spA2-anti-hTR , which has the fully complementary target sequence, had any antisense effect by itself (see below). […]

U373-MG tumors [4] = test: Subcutaneous xenografts in nude mice, intratumoral oligonucleotide; type: in vivo, Balb/c nude mice; conditions: 5 nmol intratumoral daily for 7 days
Protocol: as §3

U251-MG tumors [5] = test: In situ end-labeling (TUNEL) of DNA in subcutaneous xenografts; type: in vivo, nude mice; conditions: 5 nmol every day for 7 days
From the text: FIG. 14. In situ end-labeling of DNA in subcutaneous xenografts of nude mice. After treatment with oligonucleotides (5 nmol, every day) for 7 days, the mice were sacrificed and the subcutaneous mass was removed, frozen, and sectioned on a cryostat. The tumor specimens from U251-MG cells were counterstained by hematoxylin and eosin following the TUNEL technique. Arrows show representatives of tumor cells positive for DNA fragmentation (×400). (above) spA4-anti-(M6)hTR, 7 Day; (below) spA4-anti-hTR, 7 Day.
To further determine whether treatment with oligonucleotides induced apoptosis, tumor cells and tissues were stained by the terminal deoxynucleotidyl transferase (TdT)-mediated DUTP nick end labeling (TUNEL) technique using Apo-Tag kit (peroxidase conjugated) (Oncor Inc., Gaithersburg, Md.). The staining of apoptotic cells was done on U373MG cells. Oligonucleotides with lipofectamine was added to the cells every day. The final concentrations were 0.5 micromolar and 8 microgram/ml for oligo and lipofectamine, respectively. […]
U251-MG and U373 MG tumor cells (1.0×10^6 cells in 0.1 ml serum free DMEM and 0.1 ml Matrigel) were injected subcutaneously into the right flank of 8-12 week-old female Balb/c nude mice (5 mice for each treatment group). Tumor growth was monitored using calipers every 2- or 3-days. Tumor volume (V) was calculated as (L×W^2)/2, where L=length (mm) and W=width (mm). […]

Compound	effect on growth/viability (in words) [2]	cell viability / viable cell numbers reduced by (U373 cells)	cell death / effect on viability (in words) (U251-MG cells)	tumor response (in words) (U251-MG tumors [3]; 14 days treatment)	telomerase RNA (hTR) detected by RT-PCR (telomerase RNA (hTR))	also measured
N.N.[Cl][Pt][Cl] [cisplatin]	–	–	–	–	–	cytotoxic effect of cisplatin on subcutaneous tumors (in words) (U373-MG tumors [1]): significantly enhanced; IC50 of cisplatin (U373-MG cells; U373-MG, in combination with spA4-anti-hTR 0.5 μM every 24 hr plus Lipofectamine, three days, MTT): 1.0 µg/mL; cisplatin required to achieve 50% cell death (U373-MG cells; in the absence of SpA4-anti-hTR): > 10 micrograms per ml; cisplatin at which 50% cell death was achieved (U373-MG cells; plus 0.5 micromolar of SpA4-anti-hTR): 1 microgram per ml
Sp5′A2′p5′A2p-[(Bu)p]2-5′GCG CGG GGA GCA AAA GCA C3′-3′T5′ (antisense GCGCGGGGAGCAAAAGCAC; 5' 2-5A dimer via butanediol linkers, 3'-3' T cap, chemistry not fully specified) [spA2-anti-hTR, control with only two 2′,5′-linked adenylyl residues, defective 2-5A]	no reduction in viability	42%	mild antisense effect	lack of response	present	cells remained viable (U251-MG cells; over the 14 day treatment period): 80%
Sp5′A2′p(5′A2p)3-[(Bu)p]25′ GCC CGC GGT GCT AAT GCT C3′-3′T5′ (antisense GCCCGCGGTGCTAATGCTC; 5' tetrameric 2-5A via butanediol linkers, 3'-3' T cap, chemistry not fully specified) [spA4-anti-(M6)hTR, control with functional tetrameric 2-5A and six mismatched nucleotides in the antisense cassette]	no reduction in viability	43%	little, if any, cell death	lack of response	present	tumor growth (in words) (U251-MG tumors [3]; 5 nmol intratumoral daily for 7 days): continued to increase in size; average net weight of the tumors after treatment (U251-MG tumors [3]; 14 days treatment): 92.0 ± 14.7 mg; increase in tumor size during the treatment period (U251-MG tumors [3]; intratumoral daily for 14 days, relative to starting size): 87%; tumor growth (in words) (U373-MG tumors [4]): continued to increase in size; apoptotic cells observed in tumors (TUNEL) (U251-MG tumors [5]): a few apoptotic cells
Sp5′A(2′p5′A)3-Bu2-5′GCC CGG GGT GCA AAT GCA C3′-3′T5′ [spA4-anti-(M3)hTR]	–	76%	–	–	–	–
Sp5′A(2′p5′A)11-Bu2-5′GCG CGG GGA GCA AAA GCA C3′-3′T5′ (antisense GCGCGGGGAGCAAAAGCAC; 5' 2-5A (A12) via butanediol linkers, 3'-3' T cap, chemistry not fully specified) [spA12-anti-hTR, compound containing twelve 2′,5′-linked adenylyl residues]	–	–	–	–	–	anti-cellular activity compared with spA4-anti-hTR (in words) (U373 cells; after 7 days): considerably more anti-cellular activity
